Experimental data taken from BigSolDB 2.1.

SMILES: O=c1c2ccccc2sc2ccc(Cl)cc12
- solubility (mole fraction) (in 1,2-dichloroethane, 291.55 K): 0.0108
- solubility (mole fraction) (in 1,2-dichloroethane, 293.05 K): 0.0114
- solubility (mole fraction) (in 1,2-dichloroethane, 294.95 K): 0.0121
- solubility (mole fraction) (in 1,2-dichloroethane, 297.05 K): 0.0131
- solubility (mole fraction) (in 1,2-dichloroethane, 299.15 K): 0.0139
- solubility (mole fraction) (in 1,2-dichloroethane, 301.25 K): 0.015
- solubility (mole fraction) (in 1,2-dichloroethane, 306.25 K): 0.0173
- solubility (mole fraction) (in 1,2-dichloroethane, 311.35 K): 0.0195
- solubility (mole fraction) (in 1,2-dichloroethane, 316.35 K): 0.022
- solubility (mole fraction) (in 1,2-dichloroethane, 321.45 K): 0.0247
- solubility (mole fraction) (in 1,2-dichloroethane, 326.75 K): 0.0275
- solubility (mole fraction) (in 1,2-dichloroethane, 331.55 K): 0.0307
- solubility (mole fraction) (in 1,4-dioxane, 290.35 K): 0.00155
- solubility (mole fraction) (in 1,4-dioxane, 295.45 K): 0.00263
- solubility (mole fraction) (in 1,4-dioxane, 300.45 K): 0.00398
- solubility (mole fraction) (in 1,4-dioxane, 305.55 K): 0.00552
- solubility (mole fraction) (in 1,4-dioxane, 310.45 K): 0.00703
- solubility (mole fraction) (in 1,4-dioxane, 315.55 K): 0.00882
- solubility (mole fraction) (in 1,4-dioxane, 320.45 K): 0.0105
- solubility (mole fraction) (in 1,4-dioxane, 326.35 K): 0.0128
- solubility (mole fraction) (in 1,4-dioxane, 331.15 K): 0.0145
- solubility (mole fraction) (in 2-butanone, 292.15 K): 0.00488
- solubility (mole fraction) (in 2-butanone, 297.05 K): 0.00587
- solubility (mole fraction) (in 2-butanone, 301.95 K): 0.00695
- solubility (mole fraction) (in 2-butanone, 306.65 K): 0.00834
- solubility (mole fraction) (in 2-butanone, 311.25 K): 0.0101
- solubility (mole fraction) (in 2-butanone, 316.15 K): 0.0119
- solubility (mole fraction) (in 2-butanone, 321.25 K): 0.0145
- solubility (mole fraction) (in 2-butanone, 326.55 K): 0.017
- solubility (mole fraction) (in 2-butanone, 331.55 K): 0.0208
- solubility (mole fraction) (in 2-butanone, 335.95 K): 0.024
- solubility (mole fraction) (in THF, 291.85 K): 0.00658
- solubility (mole fraction) (in THF, 296.95 K): 0.00767
- solubility (mole fraction) (in THF, 302.15 K): 0.00869
- solubility (mole fraction) (in THF, 307.25 K): 0.00967
- solubility (mole fraction) (in THF, 312.25 K): 0.0106
- solubility (mole fraction) (in THF, 317.25 K): 0.0113
- solubility (mole fraction) (in THF, 322.25 K): 0.0118
- solubility (mole fraction) (in THF, 327.55 K): 0.0124
- solubility (mole fraction) (in THF, 332.85 K): 0.0127
- solubility (mole fraction) (in acetone, 289.15 K): 0.00244
- solubility (mole fraction) (in acetone, 294.75 K): 0.00278
- solubility (mole fraction) (in acetone, 299.15 K): 0.00306
- solubility (mole fraction) (in acetone, 303.65 K): 0.00335
- solubility (mole fraction) (in acetone, 309.25 K): 0.00381
- solubility (mole fraction) (in acetone, 313.35 K): 0.00425
- solubility (mole fraction) (in acetone, 319.15 K): 0.00498
- solubility (mole fraction) (in acetone, 323.35 K): 0.00579
- solubility (mole fraction) (in acetone, 329.25 K): 0.00692
- solubility (mole fraction) (in acetonitrile, 289.15 K): 0.000623
- solubility (mole fraction) (in acetonitrile, 294.35 K): 0.000768
- solubility (mole fraction) (in acetonitrile, 299.45 K): 0.00093
- solubility (mole fraction) (in acetonitrile, 305.15 K): 0.00114
- solubility (mole fraction) (in acetonitrile, 309.85 K): 0.00133
- solubility (mole fraction) (in acetonitrile, 315.15 K): 0.0016
- solubility (mole fraction) (in acetonitrile, 319.75 K): 0.0019
- solubility (mole fraction) (in acetonitrile, 324.35 K): 0.00226
- solubility (mole fraction) (in acetonitrile, 329.15 K): 0.00265
- solubility (mole fraction) (in ethanol, 287.55 K): 0.000567
- solubility (mole fraction) (in ethanol, 293.15 K): 0.000679
- solubility (mole fraction) (in ethanol, 298.15 K): 0.000795
- solubility (mole fraction) (in ethanol, 303.15 K): 0.000943
- solubility (mole fraction) (in ethanol, 308.35 K): 0.00122
- solubility (mole fraction) (in ethanol, 313.35 K): 0.0015
- solubility (mole fraction) (in ethanol, 318.15 K): 0.0019
- solubility (mole fraction) (in ethanol, 322.15 K): 0.00229
- solubility (mole fraction) (in ethanol, 327.65 K): 0.00296
- solubility (mole fraction) (in ethyl acetate, 289.15 K): 0.00367
- solubility (mole fraction) (in ethyl acetate, 293.15 K): 0.00419
- solubility (mole fraction) (in ethyl acetate, 298.25 K): 0.00502
- solubility (mole fraction) (in ethyl acetate, 303.45 K): 0.00588
- solubility (mole fraction) (in ethyl acetate, 308.25 K): 0.00683
- solubility (mole fraction) (in ethyl acetate, 313.35 K): 0.00786
- solubility (mole fraction) (in ethyl acetate, 318.45 K): 0.00935
- solubility (mole fraction) (in ethyl acetate, 324.65 K): 0.0112
- solubility (mole fraction) (in ethyl acetate, 330.15 K): 0.0129
- solubility (mole fraction) (in isopropanol, 290.25 K): 0.000547
- solubility (mole fraction) (in isopropanol, 295.15 K): 0.000647
- solubility (mole fraction) (in isopropanol, 300.55 K): 0.000757
- solubility (mole fraction) (in isopropanol, 304.75 K): 0.000906
- solubility (mole fraction) (in isopropanol, 310.25 K): 0.0011
- solubility (mole fraction) (in isopropanol, 314.95 K): 0.00137
- solubility (mole fraction) (in isopropanol, 320.35 K): 0.00179
- solubility (mole fraction) (in isopropanol, 325.65 K): 0.00225
- solubility (mole fraction) (in isopropanol, 331.15 K): 0.00292
- solubility (mole fraction) (in methanol, 292.15 K): 0.000192
- solubility (mole fraction) (in methanol, 297.05 K): 0.000236
- solubility (mole fraction) (in methanol, 301.95 K): 0.000279
- solubility (mole fraction) (in methanol, 306.65 K): 0.00036
- solubility (mole fraction) (in methanol, 311.25 K): 0.000414
- solubility (mole fraction) (in methanol, 316.15 K): 0.000535
- solubility (mole fraction) (in methanol, 321.25 K): 0.000665
- solubility (mole fraction) (in methanol, 326.55 K): 0.000878
- solubility (mole fraction) (in methanol, 331.55 K): 0.00112
- solubility (mole fraction) (in methanol, 335.95 K): 0.00134
- solubility (mole fraction) (in n-propanol, 290.65 K): 0.000647
- solubility (mole fraction) (in n-propanol, 295.25 K): 0.000769
- solubility (mole fraction) (in n-propanol, 300.15 K): 0.000896
- solubility (mole fraction) (in n-propanol, 305.55 K): 0.00106
- solubility (mole fraction) (in n-propanol, 310.65 K): 0.00129
- solubility (mole fraction) (in n-propanol, 315.55 K): 0.00156
- solubility (mole fraction) (in n-propanol, 320.65 K): 0.0019
- solubility (mole fraction) (in n-propanol, 325.55 K): 0.0023
- solubility (mole fraction) (in n-propanol, 331.15 K): 0.00277
- solubility (mole fraction) (in toluene, 289.65 K): 0.00915
- solubility (mole fraction) (in toluene, 295.05 K): 0.0112
- solubility (mole fraction) (in toluene, 300.15 K): 0.0138
- solubility (mole fraction) (in toluene, 305.25 K): 0.0164
- solubility (mole fraction) (in toluene, 310.25 K): 0.0193
- solubility (mole fraction) (in toluene, 315.35 K): 0.023
- solubility (mole fraction) (in toluene, 320.35 K): 0.0276
- solubility (mole fraction) (in toluene, 325.25 K): 0.0321
- solubility (mole fraction) (in toluene, 330.25 K): 0.039
